Laboratory results from patent US20260234124A1, “Substituted Pyrazolyl-Pyridinyl Compounds as Ligand Directed Degraders of IRAK3” (Celgene Corporation, priority 2022, published 2026).

Target: T1, IRAK3-ePL (Homo sapiens, UniProt Q9Y616)
T1 construct: expressed in transfected cells; host or cells: 293T CRBN OE/GSPT1 G575N KI cells, lentiviral transduction, puromycin selection
Assay: IRAK3-ePL overexpressing degradation assay
Type: cell-based
Settings: IRAK3-ePL Lenti-X 293T CRBN/GSPT1 G575N cells, overnight incubation, top dose 10 μM; for Dmax: HEK-293T, maximum percentage loss of target protein; for DC50: read-out: IRAK3 ePL degradation EC50
Procedure: Example B1. IRAK3-ePL Overexpressing Degradation Assay
Stable cell lines were generated by the following protocol. 3×10^5 Lenti-X 293T cells (Clonetech) were plated in 0.8 mL of media in a 12-well plate and incubated overnight at 37° C./5% CO2. Packaging plasmid (0.4 μg, pMD), envelope plasmid (0.4 μg, pSP), and lentiviral transfer IRAK3-ePL plasmid (0.8 μg, IRAK3 sequence NM_007199.3) were mixed in 0.1 mL of Opti-MEM and incubated for 5 min. Simultaneously, 2.4 μL of Lipofectamine 2000 (Invitrogen) was added to 0.1 mL of Opti-MEM (Gibco) and incubated for 5 min. The plasmid DNA and lipofectamine were combined and the mixture was allowed to incubate for 20 min. DNA:Lipofectamine Opti-MEM mixtures were then added to previously plated cells dropwise and the cells were incubated for ~16 h at 37° C./5% CO2. Following incubation, the media was removed and 1.2 mL of fresh media was added per well. Lenti-X 293T cells were incubated for ~30 h at 37° C./5% CO2. […] Following incubation, media was removed from the Lenti-X 293T wells and passed through a […]. Part of the viral supernatant was used to transduce cells and the rest was stored at −80° C. Viruses were then added individually (0.5 mL virus) to each well of the 293T^CRBN OE/GSPT1 G575N KI cells, followed by addition of polybrene (10 mg/mL Millipore) to each well at a final concentration of 5.0 μg/mL. Cells were incubated for ~24 h at 37° C./5% CO2. After aspirating media off plates, cells were washed with DPBS, trypsinized and plated in a 10 cm dish in 15 mL of media and 1 μg/mL puromycin. Following incubation of cells for ~72 h at 37° C./5% CO2, media was aspirated off plates, and cells were washed with DPBS and trypsinized. The cells were plated in a 15 cm dish in 40 mL of media with 1.0 μg/mL Puromycin (Gibco) and incubated for ~72 h at 37° C./5% CO2. Following incubation, media was removed and cells were washed with DPBS and trypsinized. The majority of cells were resuspended in Invitrogen freezing media and stored away (~6-8×10^6 cells/vial).
IRAK3-ePL cellular dose response curve degradation assays were performed by the following protocol. Compounds to be tested were dispensed into a white 384-well tissue-culture treated plate using an acoustic liquid handler. Dilutions were prepared based on a 25 μL assay volume in duplicate 10 point 3-fold serial dilutions starting with a 10 μM dose. Negative control wells were included, which only contain 0.2% DMSO to calculate 100% signal. Positive control wells containing 30 μM Ataluren (luciferase inhibitor) were included to calculate the background signal level. All wells were backfilled to a final DMSO concentration of 0.2% to ensure DMSO uniformity across wells. IRAK3-ePL expressing cells (IRAK3-ePL Lenti-X 293T^CRBN/GSPT1 G575N) were washed, trypsinized, counted, and resuspended in fresh DMEM (Gibco) to give a cell concentration of 200,000 cells/mL. 25 μL of cells (5,000 cells/well) were dispensed into the wells of the 384-well plate prespotted with compounds in the previous step and incubated overnight at 37° C./5% CO2. Following incubation, the 384-well plate was taken out of the incubator and left at room temperature for 30 min. InCELL hunter reagent was prepared according to manufacturer's instructions (EA reagent, lysis buffer, and substrate reagent in a 1:1:4 ratio, Cat #96-0002, DiscoverX), which was added to the 384-well plate 25 μL per well. Following the incubation of the plate for 1 h at room temperature, the luminescence signal was read using a ViewLux plate reader. Data was processed and analyzed in ActivityBase software. In short, the average luminescence values of the positive control wells were subtracted from the rest of the wells for background correction, and all luminescence values were normalized to the DMSO control wells. The average value of the DMSO control wells was set to equal 100% of the relative IRAK3-ePL protein levels. […]

Row | SMILES | Dmax [%] | DC50 [µM]
1 | Cc1ncsc1-c1ccc(CNC(=O)[C@@H]2C[C@@H](O)CN2C(=O)[C@@H](NC(=O)COCCOCCOCCOCCOCCOCCN2CCC(n3cc(-c4cnc(N)c(O[C@H](C)c5c(Cl)ccc(F)c5Cl)c4)cn3)CC2)C(C)(C)C)cc1 [Compound 6, (2S,4R)-1-((S)-23-(4-(4-(6-amino-5-((R)-1-(2,6-dichloro-3-fluorophenyl)ethoxy)pyridin-3-yl)-1H-pyrazol-1-yl)piperidin-1-yl)-2-(tert-butyl)-4-oxo-6,9,12,15,18,21-hexaoxa-3-azatricosanoyl)-4-hydroxy-N-(4-(4-methylthiazol-5-yl)benzyl)pyrrolidine-2-carboxamide] | 25 | > 10
2 | C[C@@H](Oc1cc(-c2cnn(C3CCN(C4CCC5(CC4)CCN(C(=O)c4ccc6c(c4)C(=O)N(C4CCC(=O)NC4=O)C6)CC5)CC3)c2)cnc1N)c1c(Cl)ccc(F)c1Cl (stereo partly drawn) [Compound 19, 3-(6-(9-(4-(4-(6-amino-5-((R)-1-(2,6-dichloro-3-fluorophenyl)ethoxy)pyridin-3-yl)-1H-pyrazol-1-yl)piperidin-1-yl)-3-azaspiro[5.5]undecane-3-carbonyl)-1-oxoisoindolin-2-yl)piperidine-2,6-dione] | 36 | > 10
3 | C[C@@H](Oc1cc(-c2cnn(C3CCN(CCOCCOCCNC(=O)COc4ccc5c(c4)C(=O)N(C4CCC(=O)NC4=O)C5=O)CC3)c2)cnc1N)c1c(Cl)ccc(F)c1Cl (stereo partly drawn) [Compound 15, N-(2-(2-(2-(4-(4-(6-amino-5-((R)-1-(2,6-dichloro-3-fluorophenyl)ethoxy)pyridin-3-yl)-1H-pyrazol-1-yl)piperidin-1-yl)ethoxy)ethoxy)ethyl)-2-((2-(2,6-dioxopiperidin-3-yl)-1,3-dioxoisoindolin-5-yl)oxy)acetamide] | 27 | > 10
4 | Cc1ncsc1-c1ccc(CNC(=O)[C@@H]2C[C@@H](O)CN2C(=O)[C@@H](NC(=O)COCCOCCOCCOCCN2CCC(n3cc(-c4cnc(N)c(O[C@H](C)c5c(Cl)ccc(F)c5Cl)c4)cn3)CC2)C(C)(C)C)cc1 [Compound 4, (2S,4R)-1-((S)-17-(4-(4-(6-amino-5-((R)-1-(2,6-dichloro-3-fluorophenyl)ethoxy)pyridin-3-yl)-1H-pyrazol-1-yl)piperidin-1-yl)-2-(tert-butyl)-4-oxo-6,9,12,15-tetraoxa-3-azaheptadecanoyl)-4-hydroxy-N-(4-(4-methylthiazol-5-yl)benzyl)pyrrolidine-2-carboxamide] | 26 | > 10

Now from value to compound:

Row | Dmax [%] | DC50 [µM] | SMILES
5 | 12 | > 10 | C[C@@H](Oc1cc(-c2cnn(C3CCN(CCOCCNC(=O)COc4cccc5c4C(=O)N(C4CCC(=O)NC4=O)C5=O)CC3)c2)cnc1N)c1c(Cl)ccc(F)c1Cl (stereo partly drawn) [Compound 9, N-(2-(2-(4-(4-(6-amino-5-((R)-1-(2,6-dichloro-3-fluorophenyl)ethoxy)pyridin-3-yl)-1H-pyrazol-1-yl)piperidin-1-yl)ethoxy)ethyl)-2-((2-(2,6-dioxopiperidin-3-yl)-1,3-dioxoisoindolin-4-yl)oxy)acetamide]
6 | 25 | > 10 | Cc1ncsc1-c1ccc(CNC(=O)[C@@H]2C[C@@H](O)CN2C(=O)[C@@H](NC(=O)COCCOCCN2CCC(n3cc(-c4cnc(N)c(O[C@H](C)c5c(Cl)ccc(F)c5Cl)c4)cn3)CC2)C(C)(C)C)cc1 [Compound 2, (2S,4R)-1-((S)-2-(2-(2-(2-(4-(4-(6-amino-5-((R)-1-(2,6-dichloro-3-fluorophenyl)ethoxy)pyridin-3-yl)-1H-pyrazol-1-yl)piperidin-1-yl)ethoxy)ethoxy)acetamido)-3,3-dimethylbutanoyl)-4-hydroxy-N-(4-(4-methylthiazol-5-yl)benzyl)pyrrolidine-2-carboxamide]
7 | 59 | 0.105 | C[C@@H](Oc1cc(-c2cnn(C3CCN(C4CCC5(CC4)CCN(C(=O)c4cccc6c4CN(C4CCC(=O)NC4=O)C6=O)CC5)CC3)c2)cnc1N)c1c(Cl)ccc(F)c1Cl (stereo partly drawn) [Compound 21, 3-(4-(9-(4-(4-(6-amino-5-((R)-1-(2,6-dichloro-3-fluorophenyl)ethoxy)pyridin-3-yl)-1H-pyrazol-1-yl)piperidin-1-yl)-3-azaspiro[5.5]undecane-3-carbonyl)-1-oxoisoindolin-2-yl)piperidine-2,6-dione]
8 | 80 | 0.066 | C[C@@H](Oc1cc(-c2cnn(C3CCN(C4CCC5(CC4)CCN(C(=O)c4ccc6c(c4)C(=O)N(C4CCC(=O)NC4=O)C6=O)CC5)CC3)c2)cnc1N)c1c(Cl)ccc(F)c1Cl (stereo partly drawn) [Compound 18, 5-(9-(4-(4-(6-amino-5-((R)-1-(2,6-dichloro-3-fluorophenyl)ethoxy)pyridin-3-yl)-1H-pyrazol-1-yl)piperidin-1-yl)-3-azaspiro[5.5]undecane-3-carbonyl)-2-(2,6-dioxopiperidin-3-yl)isoindoline-1,3-dione]
9 | 70 | 0.173 | C[C@@H](Oc1cc(-c2cnn(C3CCN(CCNC(=O)COc4ccc5c(c4)C(=O)N(C4CCC(=O)NC4=O)C5=O)CC3)c2)cnc1N)c1c(Cl)ccc(F)c1Cl (stereo partly drawn) [Compound 13, N-(2-(4-(4-(6-amino-5-((R)-1-(2,6-dichloro-3-fluorophenyl)ethoxy)pyridin-3-yl)-1H-pyrazol-1-yl)piperidin-1-yl)ethyl)-2-((2-(2,6-dioxopiperidin-3-yl)-1,3-dioxoisoindolin-5-yl)oxy)acetamide]
